Source: patent US20230072392A1, “NASAL SPRAY” (BREATHE BETTER LLC, priority 2021, published 2023)

Columns and labels:
individuals [1] = test: Long-term nasal use: rebound effect (rebound congestion); type: in vivo, human; details: oxymetazoline or salts at less than 0.050%, preferably 0.025%
Excerpt: In an embodiment of the nasal spray composition, the nasal spray composition may include effective amounts of a decongestant or vasoconstrictor, such as oxymetazoline, or pharmaceutical acceptable salts thereof, such as oxymetazoline hydrochloride. In an illustrative embodiment, the effective amount of oxymetazoline or pharmaceutical acceptable salts thereof, is less than 0.050%, between less than 0.050% and 0.010%, and more preferably, 0.025% or about 0.025%. Oxymetazoline, a member of the imidazole group, binds and activates alpha-2 adrenergic receptors. Upon nasal administration, imidazole group compounds constrict the arterioles in the nose, resulting in decreasing congestion. Concentrations of oxymetazoline (0.050%) utilized in the over-the-counter sprays have been proven to return symptoms to a degree stronger than present initially upon discontinuation of the drug. This is called the rebound effect, or rebound congestion (rhinitis medicamentosa, chemical rhinitis, or nasal spray addiction). The rebound effect may occur in as early as 3 days of use, but typically occurs in 3-5 days and sometimes 5-7 days of use. […] As such, the nasal spray according to the present invention can be used for a time period greater than 5-7 days without the risk of suffering from any rebound effect. […]

individuals [2] = details: oxymetazoline 0.050% in over-the-counter sprays, days of use; cited from earlier work

Cc1cc(C(C)(C)C)c(O)c(C)c1CC1=NCCN1 [oxymetazoline]
effect on snoring or sleep apnea and rebound effect (individuals [1]): effective at reducing or minimizing snoring or sleep apnea while preventing the rebound effect
rebound effect: earliest onset (may occur in as early as) (individuals [2]): 3 days
rebound effect: onset sometimes (individuals [2]): 5 to 7 days
rebound effect: typical onset (individuals [2]): 3 to 5 days
